In patent publication US20070270421A1, “Novel pyridine Derivative and Pyrimidine Derivative (1)” (priority 2004, published 2007):

Legend:
[1] = system: Human gastric cancer cells (MKN-45); assay: Inhibitory activity against the proliferation of human gastric cancer cells (MKN-45); format: cell-based; conditions: 72 h, MKN-45, 1% FBS RPMI1640, 3 days, Cell Counting Kit-8, read-out: IC50 (concentration necessary to inhibit the cell proliferation by 50%)
Description: Human gastric cancer cells (MKN-45) were suspended in a 1% FBS-containing RPMI1640 medium (purchased from Sigma). The cell suspension (1×10^4 cells/ml) was added in a 96-well plate for cell culture (purchased from NUNC, Production No. 167008) at 0.1 ml/well, and then cultured in a 5% CO2 incubator (37° C.) overnight. After the culture, each well was supplied with 0.1 ml of a test substance diluted with a 1% FBS-containing RPMI1640 medium, followed by culturing in a 5% CO2 incubator (37° C.) for 3 days. After the culture, each well was supplied with 10 μl of Cell Counting Kit-8 (purchased from DOJINDO, Production No. 343-07623), followed by incubation in a 5% CO2 incubator (37° C.) for about 1.5 hrs. After the incubation, using the Plate Reader MTP-500 (Corona Electric), the absorbance of each well was determined at a measurement wavelength of 450 nm and a reference wavelength of 660 nm. The ratio (%) of absorbance of each well supplied with a test substance to absorbance of the well supplied with no test substance was calculated, and the ratio was used to calculate the concentration (IC50) of the test substance necessary to inhibit the cell proliferation by 50%.

HGFR autophosphorylation = biological target: T1, HGFR autophosphorylation (Homo sapiens, UniProt P08581); assay: Inhibitory activity against the HGFR autophosphorylation using ELISA; format: cell-based; conditions: MKN-45 cells, 1 hr treatment, read-out: IC50 (concentration necessary to inhibit HGFR autophosphorylation activity by 50%)
T1 construct: endogenous in cells; host or cells: MKN-45 human gastric cancer cells
Description: Human gastric cancer cells (MKN-45) were suspended in a 1% FBS-containing RPMI1640 medium (purchased from Sigma). The cell suspension (1×10^5 cells/ml) was put in a 96-well plate for cell culture (purchased from NUNC, Production No. 167008) at 0.1 ml/well, and then cultured in a 5% CO2 incubator (37° C.) overnight. After the culture, from each well was removed the supernatant solution, followed by adding 0.05 ml of a 1% FBS-containing RPMI1640 medium. Then, the well was supplied with 0.05 ml of the test substance dissolved in dimethyl sulfoxide (diluted with a 1% FBS-containing RPMI1640 medium), followed by culturing in a 5% CO2 incubator (37° C.) for 1 hr. From each well was removed the supernatant, and each well was washed with 150 μl of PBS, followed by adding 100 μl of a lysis buffer (50 mM Hepes (pH 7.4), 150 mM NaCl, 10% (v/v) glycerol, 1% Triton X-100, 1.5 mM MgCl2, 1 mM EDTA (pH 8.0), 100 mM NaF, 1 mM PMSF, 10 μg/ml Aprotinin, 50 μg/ml Leupeptin, 1 μg/ml Pepstatin A and 1 mM Na3VO4). The plate was shaken at 4° C. for 1 hr to prepare the cell extract.
To a 96-well plate for ELISA (purchased from COSTAR, Production No. 3369) was added 50 μl of 60 mM bicarbonate buffer (pH 9.6) containing 50 μg/ml of an anti-phosphotyrosine antibody (PY20, purchased from Transduction Laboratory, Production No. P-11120). The plate was incubated at 4° C. overnight.
Each well of the plate prepared in 2. was washed three times with 200 μl of PBS, and supplied with 150 μl of 3% BSA/PBS, followed by incubating at room temperature for 2 hrs. Each well was washed three times with 200 μl of PBS, and supplied with 50 μl of the above cell extract, followed by incubating at 4° C. overnight. After the incubation, each well was washed three times with 250 μl of a washing solution (0.1% BSA, 20 mM Tris-HCl (pH 7.6), 137 mM NaCl, and 0.05% Tween-20), and supplied with 70 μl of anti-HGFR antibody (h-Met(C-12), purchased from Santa Cruz, Production No. sc-10) 2,000-fold diluted with a reaction solution (1% BSA, 20 mM Tris-HCl (pH 7.6), 137 mM NaCl and 0.05% Tween-20), followed by incubating at room temperature for 1 hr. The well was washed three times with 250 μl of the washing solution, and supplied with 70 μl of peroxidase-labelled anti-rabbit IgG antibody (purchased from Cell Signaling, Production No. 7074) 2,000-fold diluted with the reaction solution, followed by incubating at room temperature for 1 hr. Each well was washed three times with 250 μl of the washing solution, and supplied with 70 μl of TMB Membrane Peroxidase Substrate (purchased from Funakoshi, Production No. 50-5077-03), followed by incubating at room temperature for 10 min. Each well was supplied with 70 μl of 1 M phosphoric acid, and using the Plate Reader MTP-500 (Corona Electric), the absorbance of the well was instantly determined at a measurement wavelength of 450 nm. While defining the absorbance of a well supplied with the cell extract having no test substance as 100% HGFR autophosphorylation activity, and the absorbance of a well supplied with 50 μl of the lysis buffer as 0% HGFR autophosphorylation activity, the HGFR autophosphorylation activity (%) was calculated for each well. The concentration of the test substance was changed by several levels to calculate HGFR autophosphorylation activities (%) in respective cases, and to calculate the concentration (IC50) of the test substance necessary to inhibit HGFR autophosphorylation activity by 50%.

T1 sequence (P08581 25-1390): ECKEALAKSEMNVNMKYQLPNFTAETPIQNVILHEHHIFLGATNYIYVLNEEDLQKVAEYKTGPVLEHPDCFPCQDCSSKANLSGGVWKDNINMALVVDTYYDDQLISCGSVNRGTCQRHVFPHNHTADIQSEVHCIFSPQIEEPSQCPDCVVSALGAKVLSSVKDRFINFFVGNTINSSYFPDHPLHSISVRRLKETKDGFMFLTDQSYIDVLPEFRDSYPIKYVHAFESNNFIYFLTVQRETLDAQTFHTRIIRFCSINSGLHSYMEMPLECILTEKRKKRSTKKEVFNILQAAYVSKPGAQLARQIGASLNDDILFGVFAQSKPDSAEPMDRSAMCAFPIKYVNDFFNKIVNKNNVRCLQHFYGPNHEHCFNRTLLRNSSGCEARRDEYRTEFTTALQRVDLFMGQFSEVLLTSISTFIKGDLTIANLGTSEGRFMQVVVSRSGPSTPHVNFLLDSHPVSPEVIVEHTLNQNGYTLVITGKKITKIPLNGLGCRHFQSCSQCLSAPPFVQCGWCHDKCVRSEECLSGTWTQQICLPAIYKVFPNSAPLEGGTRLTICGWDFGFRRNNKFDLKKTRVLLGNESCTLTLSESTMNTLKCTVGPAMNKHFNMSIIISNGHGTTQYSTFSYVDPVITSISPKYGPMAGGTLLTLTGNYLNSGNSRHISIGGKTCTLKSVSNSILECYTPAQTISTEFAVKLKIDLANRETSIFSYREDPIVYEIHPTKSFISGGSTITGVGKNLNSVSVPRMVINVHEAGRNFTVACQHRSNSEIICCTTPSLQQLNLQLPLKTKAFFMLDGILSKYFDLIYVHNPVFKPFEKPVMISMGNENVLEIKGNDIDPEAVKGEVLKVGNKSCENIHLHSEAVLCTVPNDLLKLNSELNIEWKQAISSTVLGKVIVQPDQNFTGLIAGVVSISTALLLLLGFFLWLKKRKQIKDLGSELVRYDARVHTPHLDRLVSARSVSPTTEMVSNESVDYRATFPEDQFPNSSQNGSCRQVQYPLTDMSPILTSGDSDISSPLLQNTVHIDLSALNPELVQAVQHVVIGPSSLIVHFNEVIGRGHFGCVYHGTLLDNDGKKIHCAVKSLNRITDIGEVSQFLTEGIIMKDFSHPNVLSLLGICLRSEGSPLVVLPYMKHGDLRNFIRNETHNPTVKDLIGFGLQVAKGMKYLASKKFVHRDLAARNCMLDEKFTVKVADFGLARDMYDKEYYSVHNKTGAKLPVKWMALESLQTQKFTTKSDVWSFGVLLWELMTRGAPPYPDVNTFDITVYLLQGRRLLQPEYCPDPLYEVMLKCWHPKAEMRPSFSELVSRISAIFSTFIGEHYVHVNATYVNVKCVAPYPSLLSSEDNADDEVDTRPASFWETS

- IC50 [1]: 86 nM
- IC50 (HGFR autophosphorylation): 49 nM
Compound: CN1CCC(N(C)C(=O)Nc2cc(Oc3ccc(NC(=O)CC(=O)Nc4ccc(F)cc4)cc3F)ccn2)CC1 [Example 89, N-(3-Fluoro-4-{2-[3-methyl-3-(1-methylpiperidin-4-yl)ureido]pyridin-4-yloxy}phenyl)-N′-(4-fluorophenyl)malonamide]
